# In PMC6714992 (Clinical and Applied Thrombosis/Hemostasis, 2019):
# Biological target: factor Xa (Bos taurus, UniProt P00743)
# Test: kinetic amidolytic
# Type: biochemical
# Chain of factor Xa (P00743 41-180): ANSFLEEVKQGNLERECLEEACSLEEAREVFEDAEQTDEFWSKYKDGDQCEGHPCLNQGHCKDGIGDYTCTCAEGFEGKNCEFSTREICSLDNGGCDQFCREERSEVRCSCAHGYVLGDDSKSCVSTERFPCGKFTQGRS
# Chain of factor Xa (P00743 234-492): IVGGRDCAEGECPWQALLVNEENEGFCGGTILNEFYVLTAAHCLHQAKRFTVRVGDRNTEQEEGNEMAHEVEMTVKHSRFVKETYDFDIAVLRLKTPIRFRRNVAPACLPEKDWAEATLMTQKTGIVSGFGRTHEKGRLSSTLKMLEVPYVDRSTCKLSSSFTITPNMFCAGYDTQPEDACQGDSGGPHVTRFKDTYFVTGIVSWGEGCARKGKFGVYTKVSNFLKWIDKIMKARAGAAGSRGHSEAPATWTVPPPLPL
structure (smiles),measurement,value
COc1ccc(NC(=O)c2ccc(C(=N)N(C)C)cc2)c(C(=O)Nc2ccc(Cl)cn2)c1 [betrixaban],IC50,> 2880 nM
